Experimental findings from patent US6407103B2, “Indeno [1,2-c] pyrazol-4-ones and their uses” (Bristol-Myers Squibb Pharma Company, priority 1998, dated 2002) are described below.

Each structure is given as a SMILES string. Counter-ions that a name gives are not always drawn. A value given as a limit tells only on which side of the number the result lay.

By melting point is commonly meant the temperature of the solid-liquid transition. Compound `CC(C)(C)OC(=O)N1CCN(C(=O)N2CCC(c3[nH]nc4c3C(=O)c3c(NC(=O)NN5CCOCC5)cccc3-4)CC2)CC1` (as salt: TFA) [Example CCLXXI, 3-(1-(4-(t-butoxycarbonyl)piperazinocarbonyl)piperidin-4-yl)-5-(morpholinocarbamoylamino)indeno[1,2-c]pyrazol-4-one] yielded a melting point of 231 °C. For `O=C(Nc1cccc2c1C(=O)c1c-2n[nH]c1C1CCN(C(=O)N2C[C@@H]3C[C@H]2CN3)CC1)NN1CCOCC1` (as salt: TFA) [Example CCLXXII, 3-(1-(((1S,4S)-(+)-2,5-diazabicyclo[2.2.1]hept-2-yl)carbonyl)piperidin-4-yl)-5-(morpholinocarbamoylamino)indeno[1,2-c]pyrazol-4-one] the value was 196 °C.

`CN1C[C@@H]2C[C@H]1CN2C(=O)N1CCC(c2[nH]nc3c2C(=O)c2c(NC(=O)NN4CCOCC4)cccc2-3)CC1` (as salt: TFA) [Example CCLXXIII, 3-(1-(((1S,4S)-(+)-5-methyl-2,5-diazabicyclo[2.2.1]hept-2-yl)carbonyl)piperidin-4-yl)-5-(morpholinocarbamoylamino)indeno[1,2-c]pyrazol-4-one] had a melting point of 225 °C. For `CC(C)(C)OC(=O)NCCCCC(=O)N1CCC(c2[nH]nc3c2C(=O)c2c(NC(=O)NN4CCOCC4)cccc2-3)CC1` (as salt: TFA) [Example CCLXXIX, 3-(1-(4-(t-butoxycarbonylamino)butylcarbonyl)piperidin-4-yl)-5-(morpholinocarbamoylamino)indeno[1,2-c]pyrazol-4-one] the value was 98 °C; for `NCCCCC(=O)N1CCC(c2[nH]nc3c2C(=O)c2c(NC(=O)NN4CCOCC4)cccc2-3)CC1` (as salt: TFA) [Example CCLXXVII, 3-(1-(4-aminobutylcarbonyl)piperidin-4-yl)-5-(morpholinocarbamoylamino)indeno[1,2-c]pyrazol-4-one], 103 °C; for `CN(C)CCCCC(=O)N1CCC(c2[nH]nc3c2C(=O)c2c(NC(=O)NN4CCOCC4)cccc2-3)CC1` (as salt: TFA) [Example CCLXXVIII, 3-(1-(4-(dimethylamino)butylcarbonyl)piperidin-4-yl)-5-(morpholinocarbamoylamino)indeno[1,2-c]pyrazol-4-one], 68 °C. With `CN1CCC(C(=O)N2CCC(c3[nH]nc4c3C(=O)c3c(NC(=O)NN5CCOCC5)cccc3-4)CC2)CC1` (as salt: TFA) [Example CCLXXX, 3-(1-((1-methylpiperidin-4-yl)carbonyl)piperidin-4-yl)-5-(morpholinocarbamoylamino)indeno[1,2-c]pyrazol-4-one] the figure was 148 °C; with `N[C@H]1CC[C@@H](C(=O)N2CCC(c3[nH]nc4c3C(=O)c3c(NC(=O)NN5CCOCC5)cccc3-4)CC2)CC1` (as salt: TFA) [Example CCLXXXII, 3-(1-(cis-4-aminocyclohexylcarbonyl)piperidin-4-yl)-5-(morpholinocarbamoylamino)indeno[1,2-c]pyrazol-4-one], 212 °C; with `NC1CCC(C(=O)N2CCC(c3[nH]nc4c3C(=O)c3c(NC(=O)NN5CCOCC5)cccc3-4)CC2)CC1` (centres unmarked) (as salt: TFA) [Example CCLXXXIII, 3-(1-(4-aminocyclohexylcarbonyl)piperidin-4-yl)-5-(morpholinocarbamoylamino)indeno[1,2-c]pyrazol-4-one], 202 °C. With `CC(C)(C)OC(=O)NC1CCC(C(=O)N2CCC(c3[nH]nc4c3C(=O)c3c(NC(=O)NN5CCOCC5)cccc3-4)CC2)CC1` (centres unmarked) (as salt: TFA) [Example CCLXXXV, 3-(1-(4-(t-butoxycarbonylamino)cyclohexylcarbonyl)piperidin-4-yl)-5-(morpholinocarbamoylamino)indeno[1,2-c]pyrazol-4-one] the figure was 210 °C; with `O=C(Nc1cccc2c1C(=O)c1c-2n[nH]c1C1CCN(C(=O)C2CCCNC2)CC1)NN1CCOCC1` (centres unmarked) (as salt: TFA) [Example CCLXXXVII, 3-(1-(piperidin-3-ylcarbonyl)piperidin-4-yl)-5-(morpholinocarbamoylamino)indeno[1,2-c]pyrazol-4-one], 169 °C; with `CN1CCCC(C(=O)N2CCC(c3[nH]nc4c3C(=O)c3c(NC(=O)NN5CCOCC5)cccc3-4)CC2)C1` (centres unmarked) (as salt: TFA) [Example CCLXXXVIII, 3-(1-(1-methylpiperidin-3-ylcarbonyl)piperidin-4-yl)-5-(morpholinocarbamoylamino)indeno[1,2-c]pyrazol-4-one], 158 °C. Consider `COC[C@H]1CCCN1NC(=O)Nc1cccc2c1C(=O)c1c-2n[nH]c1-c1ccc(C(=O)N2CCN(C(=O)OC(C)(C)C)CC2)s1` (as salt: TFA) [Example CCV, 3-(5-(4-(t-butoxycarbonyl)piperazinocarbonyl)-2-thienyl)-5-(2(R)-(methoxymethyl)pyrrolidinocarbamoylamino)indeno[1,2-c]pyrazol-4-one], for which the melting point is more than 300 °C. With `NC1CCCC(C(=O)N2CCC(c3[nH]nc4c3C(=O)c3c(NC(=O)NN5CCOCC5)cccc3-4)CC2)C1` (centres unmarked) (as salt: TFA) [Example CCXC, 3-(1-(3-aminocyclohexylcarbonyl)piperidin-4-yl)-5-(morpholinocarbamoylamino)indeno[1,2-c]pyrazol-4-one] the figure was 201 °C. For `CN(C)C1CCCC(C(=O)N2CCC(c3[nH]nc4c3C(=O)c3c(NC(=O)NN5CCOCC5)cccc3-4)CC2)C1` (centres unmarked) (as salt: TFA) [Example CCXCI, 3-(1-(3-(dimethylamino)cyclohexylcarbonyl)piperidin-4-yl)-5-(morpholinocarbamoylamino)indeno[1,2-c]pyrazol-4-one] the value was 153 °C; for `CO[C@H]1CC[C@H](C(=O)N2CCC(c3[nH]nc4c3C(=O)c3c(NC(=O)NN5CCOCC5)cccc3-4)CC2)CC1` (as salt: TFA) [Example CCXCII, 3-(1-(trans-4-methoxycyclohexylcarbonyl)piperidin-4-yl)-5-(morpholinocarbamoylamino)indeno[1,2-c]pyrazol-4-one], 246 °C; for `CO[C@H]1CC[C@@H](C(=O)N2CCC(c3[nH]nc4c3C(=O)c3c(NC(=O)NN5CCOCC5)cccc3-4)CC2)CC1` (as salt: TFA) [Example CCXCIII, 3-(1-(cis-4-methoxycyclohexylcarbonyl)piperidin-4-yl)-5-(morpholinocarbamoylamino)indeno[1,2-c]pyrazol-4-one], 178 °C. For `Nc1ccc(CC(=O)N2CCC(c3[nH]nc4c3C(=O)c3c(NC(=O)NN5CCOCC5)cccc3-4)CC2)cc1` (as salt: TFA) [Example CCXCIV, 3-(1-(4-aminobenzylcarbonyl)piperidin-4-yl)-5-(morpholinocarbamoylamino)indeno[1,2-c]pyrazol-4-one] the value was 177 °C; for `CN(C)c1ccc(CC(=O)N2CCC(c3[nH]nc4c3C(=O)c3c(NC(=O)NN5CCOCC5)cccc3-4)CC2)cc1` (as salt: TFA) [Example CCXCV, 3-(1-(4-(dimethylamino)benzylcarbonyl)piperidin-4-yl)-5-(morpholinocarbamoylamino)indeno[1,2-c]pyrazol-4-one], 107 °C. `Nc1ccc(C(=O)N2CCC(c3[nH]nc4c3C(=O)c3c(NC(=O)NN5CCOCC5)cccc3-4)CC2)cc1` (as salt: TFA) [Example CCXCVII, 3-(1-(4-aminophenylcarbonyl)piperidin-4-yl)-5-(morpholinocarbamoylamino)indeno[1,2-c]pyrazol-4-one] registered a melting point of 198 °C. With `CN(C)c1ccc(C(=O)N2CCC(c3[nH]nc4c3C(=O)c3c(NC(=O)NN5CCOCC5)cccc3-4)CC2)cc1` (as salt: TFA) [Example CCXCVIII, 3-(1-(4-(dimethylamino)phenylcarbonyl)piperidin-4-yl)-5-(morpholinocarbamoylamino)indeno[1,2-c]pyrazol-4-one] the figure was 189 °C. For `O=C(Nc1cccc2c1C(=O)c1c-2n[nH]c1-c1ccc(N2CCNCC2)cc1)NN1CCOCC1` (as salt: TFA) [Example CCXI, 3-(4-piperazinophenyl)-5-(morpholinocarbamoylamino)indeno[1,2-c]pyrazol-4-one] the value was 263 °C; for `NC(=O)Nc1cccc2c1C(=O)c1c-2n[nH]c1-c1ccc(N2CCNCC2)cc1` (as salt: TFA) [Example CCXII, 3-(4-piperazinophenyl)-5-(carbamoylamino)indeno[1,2-c]pyrazol-4-one], 257 °C; for `NNC(=O)Nc1cccc2c1C(=O)c1c-2n[nH]c1-c1ccc(N2CCNCC2)cc1` (as salt: TFA) [Example CCXIII, 3-(4-piperazinophenyl)-5-(aminocarbamoylamino)indeno[1,2-c]pyrazol-4-one], 257 °C. Compound `CN(C)CC(=O)Nc1cccc2c1C(=O)c1c-2n[nH]c1-c1ccc(N2CCNCC2)cc1` (as salt: TFA) [Example CCXIV, 3-(4-piperazinophenyl)-5-((N,N-dimethylamino)acetamido)indeno[1,2-c]pyrazol-4-one] showed a melting point of 243 °C.

Turning to `CCN1CCN(c2ccc(-c3[nH]nc4c3C(=O)c3c(NC(=O)NN5CCOCC5)cccc3-4)cc2)CC1` (as salt: TFA) [Example CCXIX, 3-(4-(4-ethylpiperazino)phenyl)-5-(morpholinocarbamoylamino)indeno[1,2-c]pyrazol-4-one], the melting point came to 245 °C.

`CN(C)C1CCN(c2ccc(-c3[nH]nc4c3C(=O)c3c(NC(=O)NN5CCOCC5)cccc3-4)cc2)CC1` (as salt: TFA) [Example CCXLVIII, 3-(4-(4-(N,N-dimethylamino)piperidino)phenyl)-5-(morpholinocarbamoylamino)indeno[1,2-c]pyrazol-4-one] displayed a melting point of 258 °C. For `O=C(CN1CCOCC1)Nc1cccc2c1C(=O)c1c-2n[nH]c1-c1ccc(N2CCNCC2)cc1` (as salt: TFA) [Example CCXV, 3-(4-piperazinophenyl)-5-(morpholinoacetamido)indeno[1,2-c]pyrazol-4-one], the melting point was 259 °C.

Regarding `NCC1CCN(CC(=O)Nc2cccc3c2C(=O)c2c-3n[nH]c2-c2ccc(N3CCNCC3)cc2)CC1` (as salt: TFA) [Example CCXVII, 3-(4-piperazinophenyl)-5-(4-(aminomethyl)piperidinoacetamido)indeno[1,2-c]pyrazol-4-one], the melting point was determined as 239 °C.
